How the values were obtained:
RAW264.7 cells = assay: iNOS and COX-2 expression after LPS (Western blot); format: cell-based; conditions: 3 h pretreatment (Table 3 amounts), LPS 1 μg/ml 24 h
Method in brief: (§1)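 RAW264.7 or BV2 cells (5×10^5 cells/well) in DMEM with 10% FBS were pretreated with compound, then stimulated with 1 μg/ml LPS for 24 h. iNOS and COX-2 expression by Western blot; NO and PGE2 production measured. Compound toxicity checked by MTT.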

BV2 cells = assay: iNOS and COX-2 expression after LPS (Western blot); format: cell-based; conditions: 3 h pretreatment (Table 3 amounts), LPS 1 μg/ml 24 h
Method in brief: as §1

[1] = molecular target: T1, rePON1 (PON1, paraoxonase 1) (Homo sapiens, UniProt P27169); assay: Prevention of inhibition of PON1 activity by oxidized linolenic acid (TBBL substrate); format: biochemical
T1 construct: purchased Thermo Corp. RP-75678
Method in brief: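 Recombinant PON1 preincubated 30 min at room temperature with compound (30 μM) in 50 mM Tris-HCl/1 mM CaCl2, then exposed to oxidized linolenic acid for 2 h. Activity read with TBBL and DTNB at 420 nm, 37 °C, every 2 min for 1 h, expressed relative to uninhibited PON1.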

T1 sequence (P27169 whole entry): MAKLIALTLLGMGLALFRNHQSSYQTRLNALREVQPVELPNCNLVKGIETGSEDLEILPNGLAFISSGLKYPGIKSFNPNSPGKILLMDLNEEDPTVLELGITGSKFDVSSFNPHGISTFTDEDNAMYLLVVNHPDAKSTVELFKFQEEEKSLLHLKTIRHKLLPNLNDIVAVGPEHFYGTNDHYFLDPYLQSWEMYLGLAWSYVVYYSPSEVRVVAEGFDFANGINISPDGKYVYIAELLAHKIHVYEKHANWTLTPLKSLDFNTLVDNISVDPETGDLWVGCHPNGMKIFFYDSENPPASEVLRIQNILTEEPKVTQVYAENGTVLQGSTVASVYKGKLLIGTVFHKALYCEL

CCOc1ccc(C2COc3c(ccc4c3CCC(C)(C)O4)C2)c(O)c1 (stereo not shown) [Formula III-1, 2-(8,8-dimethyl-2,3,4,8,9,10-hexahydropyrano[2,3-f]chromen-3-yl)-5-ethoxyphenol]
expression level of COX-2 (RAW264.7 cells): concentration-dependently decreased
expression level of iNOS (RAW264.7 cells): concentration-dependently decreased
expression level of COX-2 (BV2 cells): concentration-dependently decreased
expression level of iNOS (BV2 cells): concentration-dependently decreased
activity at 30 µM ([1]; 30 μM compound with rePON1 30 min, then oxidized linolenic acid 2 h, TBBL substrate, normal control 100, negative control 73.64): 89%
extent to which inhibition of rePON1 activity was prevented, compared with glabridin ([1]; compound 30 μM vs glabridin 30 μM, result in words): greater
inhibition of rePON1 activity by oxidized linolenic acid ([1]; compound 30 μM, result in words): prevented

Source: patent publication US20220257557A1, “PHARMACEUTICAL COMPOSITION FOR PREVENTING OR TREATING NEUROLOGICAL DISEASES” (GLACEUM INC., priority 2019, published 2022)
